From the supplement of paper PMC10307832

Key:
Test in all cases: relative viability (nuclei count vs DMSO), 5 days (fraction); higher = more cells survive
Adavosertib + Olaparib = compound: C=CCn1c(=O)c2cnc(Nc3ccc(N4CCN(C)CC4)cc3)nc2n1-c1cccc(C(C)(C)O)n1 [Adavosertib] + O=C(c1cc(Cc2n[nH]c(=O)c3ccccc23)ccc1F)N1CCN(C(=O)C2CC2)CC1 [Olaparib] (partner 8 µM)
How it was run: (§1)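 Values are medians from duplicate plates. Each reflects relative viability, defined as the nuclei count of treated wells over that of vehicle wells. Lung cancer cell lines in 1536-well plates were pin-tool dosed one day after seeding with one drug alone or with a fixed anchor-drug dose plus five library-drug doses (not always all listed) in √10 steps, then fixed, stained and imaged at 4× after 5 days.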

Nelarabine + Decitabine = compound: COc1nc(N)nc2c1ncn2[C@@H]1O[C@H](CO)[C@@H](O)[C@@H]1O [Nelarabine] + Nc1ncn([C@H]2C[C@H](O)[C@@H](CO)O2)c(=O)n1 [Decitabine] (partner 2 µM)
How it was run: as §1

Nelarabine + Tozasertib = compound: COc1nc(N)nc2c1ncn2[C@@H]1O[C@H](CO)[C@@H](O)[C@@H]1O [Nelarabine] + Cc1cc(Nc2cc(N3CCN(C)CC3)nc(Sc3ccc(NC(=O)C4CC4)cc3)n2)n[nH]1 [Tozasertib] (partner 0.1 µM)
How it was run: as §1

Adavosertib + Lapatinib = compound: C=CCn1c(=O)c2cnc(Nc3ccc(N4CCN(C)CC4)cc3)nc2n1-c1cccc(C(C)(C)O)n1 [Adavosertib] + CS(=O)(=O)CCNCc1ccc(-c2ccc3ncnc(Nc4ccc(OCc5cccc(F)c5)c(Cl)c4)c3c2)o1 [Lapatinib] (partner 2 µM)
How it was run: as §1

Cell Line | relative viability (Adavosertib + Olaparib; first compound 0.01 µM) | relative viability (Adavosertib + Olaparib; first compound 0.03162 µM) | relative viability (Adavosertib + Olaparib; first compound 0.1 µM) | relative viability (Adavosertib + Olaparib; first compound 0.3162 µM) | relative viability (Nelarabine + Decitabine; first compound 0.01 µM) | relative viability (Nelarabine + Decitabine; first compound 0.03162 µM) | relative viability (Nelarabine + Decitabine; first compound 0.1 µM) | relative viability (Nelarabine + Decitabine; first compound 0.3162 µM) | relative viability (Nelarabine + Decitabine; first compound 1 µM) | relative viability (Nelarabine + Tozasertib; first compound 0.01 µM) | relative viability (Nelarabine + Tozasertib; first compound 0.03162 µM) | relative viability (Nelarabine + Tozasertib; first compound 0.1 µM) | relative viability (Nelarabine + Tozasertib; first compound 0.3162 µM) | relative viability (Nelarabine + Tozasertib; first compound 1 µM) | relative viability (Adavosertib + Lapatinib; first compound 0.01 µM) | relative viability (Adavosertib + Lapatinib; first compound 0.03162 µM) | relative viability (Adavosertib + Lapatinib; first compound 0.1 µM) | relative viability (Adavosertib + Lapatinib; first compound 0.3162 µM)
UMC-11 | 0.411 | 0.429 | 0.452 | 1.03 | 0.71 | 0.551 | 0.578 | 0.589 | 0.61 | 0.185 | 0.204 | 0.378 | 0.206 | 0.204 | 0.939 | 0.999 | 0.851 | 1.28
NCI-H1975 | 0.873 | 0.803 | 0.737 | 0.63 | 0.391 | 0.336 | 0.426 | 0.418 | 0.431 | 0.69 | 0.689 | 1.05 | 0.911 | 0.926 | 0.878 | 0.805 | 0.895 | 0.667
NCI-H2405 |  | 0.865 | 0.907 | 0.898 | 0.674 | 0.686 | 0.745 | 0.816 | 0.721 | 0.805 | 0.682 | 0.663 | 0.73 | 0.67 | 1.09 | 1.13 | 1.04 | 1.11
NCI-H1734 | 0.584 | 0.613 | 0.562 | 0.352 | 0.551 | 0.458 | 0.491 | 0.486 | 0.499 | 0.305 | 0.253 | 0.253 | 0.257 | 0.292 | 1.07 | 1.07 | 1.07 | 0.825
NCI-H1993 | 0.97 | 1.01 | 0.988 | 1.26 | 0.667 | 0.507 | 0.526 | 0.578 | 0.65 | 0.662 | 0.553 | 0.623 | 0.586 | 0.571 | 0.798 | 0.865 | 0.894 | 0.8
NCI-H1792 | 0.464 | 0.461 | 0.378 | 0.459 | 0.642 | 0.428 | 0.573 | 0.579 | 0.634 |  |  |  |  |  | 0.824 | 0.931 | 0.919 | 0.937
NCI-H358 | 0.563 | 0.517 | 0.416 | 0.329 | 0.219 | 0.214 | 0.171 | 0.215 | 0.219 | 0.0868 | 0.0783 | 0.096 | 0.105 | 0.0898 | 0.355 | 0.429 | 0.46 | 0.431
Calu-6 | 0.629 | 0.552 | 0.523 | 0.216 |  |  |  |  |  |  |  |  |  |  | 1.07 | 1 | 1.04 | 0.356
PC-14 | 0.44 | 0.211 | 0.176 | 0.0727 | 0.225 | 0.231 | 0.202 | 0.219 | 0.224 | 0.625 | 0.645 | 0.597 | 0.599 | 0.631 | 0.344 | 0.319 | 0.297 | 0.407
NCI-H520 | 0.345 | 0.332 | 0.308 | 0.332 | 0.566 | 0.44 | 0.512 | 0.617 | 0.485 | 0.574 | 0.315 | 0.429 | 0.457 | 0.429 | 0.923 | 0.822 | 0.802 | 0.858
IA-LM | 0.809 | 0.82 | 0.872 | 0.775 |  |  |  |  |  |  |  |  |  |  | 0.996 |  | 1.03 | 0.901
CAL-12T | 0.722 | 0.723 | 0.863 | 0.475 |  |  |  |  |  | 0.358 | 0.309 | 0.316 | 0.303 | 0.363 |  | 0.678 | 0.598 | 0.464
A549 | 0.356 | 0.336 | 0.446 | 0.438 | 0.293 | 0.282 | 0.271 | 0.287 | 0.23 |  |  |  |  |  | 0.908 | 1.01 | 1.06 | 0.743
NCI-H1648 | 0.953 | 0.966 | 1.39 | 0.769 |  | 0.533 |  | 0.616 | 0.441 | 0.456 | 0.405 | 0.43 | 0.601 | 0.383 |  |  |  | 
SW 900 | 0.722 | 0.851 | 0.779 | 0.399 | 0.415 | 0.399 | 0.398 | 0.39 | 0.41 | 0.617 | 0.476 | 0.635 | 0.611 | 0.532 |  |  |  | 
NCI-H2228 |  | 0.749 | 0.519 | 0.27 |  |  |  |  |  | 0.226 | 0.163 |  | 0.245 | 0.214 | 1.39 | 1.13 | 1.46 | 0.494
NCI-H1623 |  |  |  |  |  |  |  |  |  | 0.46 | 0.341 | 0.601 | 0.45 | 0.406 |  |  |  | 
EBC-1 | 0.624 | 0.765 | 0.83 | 0.647 |  |  |  |  |  |  |  |  |  |  | 0.198 | 0.206 | 0.25 | 0.21
NCI-H2342 | 0.497 | 0.561 | 0.492 | 0.524 | 0.758 | 0.759 | 0.703 | 0.775 | 0.734 | 0.532 | 0.513 | 0.446 | 0.478 | 0.462 |  |  |  | 
NCI-H1563 |  |  |  |  |  |  |  |  |  |  |  |  |  |  | 1.02 | 1.02 | 0.969 | 0.932
ChaGo-K-1 | 0.434 | 0.39 | 0.405 | 0.32 | 0.559 | 0.532 | 0.52 | 0.539 | 0.539 | 0.237 | 0.205 | 0.193 | 0.232 | 0.231 |  |  |  | 
NCI-H441 | 0.533 | 0.477 | 0.577 | 0.462 | 0.214 | 0.222 | 0.23 | 0.231 | 0.22 | 0.691 | 0.704 | 0.58 | 0.61 | 0.697 |  |  |  | 
LCLC-103H | 0.797 | 0.769 | 0.761 | 0.742 | 0.924 | 0.716 | 0.809 | 0.759 | 0.638 | 0.674 | 0.358 | 0.373 | 0.479 | 0.47 |  |  |  | 
NCI-H1299 | 0.953 | 0.959 | 1.04 | 0.357 |  |  |  |  |  |  |  |  |  |  | 0.954 | 0.968 | 0.977 | 0.431
